Square brackets hold non-standard residues; d marks the D form. Peptide text beside a SMILES is read from it. ξ: configuration not given here. Orn = NCCC[C@H](N)C(=O)O; ξP = O=C(O)C1CCCN1
What was measured:
[1] = tested on: red blood cells; assay: Haemolytic assay on treated filter disks; assay type: cell-based; conditions: peptide in solution
Procedure: Fresh blood from anonymous donors (obtained from the Western Cape Blood transfusion Service, South Africa) was transferred to a sterile Falcon® tube, filled with sterile phosphate buffered saline (PBS: 4.0% (w/v) NaCl, 0.1% (w/v) KC, 0.72% (w/v) Na2HPO4, 0.1% (w/v) KH2PO4, pH 7.2, 5× concentrated stock solution) and centrifuged at 1200×g for 3 minutes. The supernatant was removed and the process repeated. The supernatant was removed once again and remaining blood cells were used for the assays. A clear 96-well microplate was used for this assay. Three disks of each of the matrixes (treated and untreated) were placed into the wells and 4 wells received 10 μL of gramicidin S as positive haemolytic control (1.0 mg/mL). Blood (100 μL at 2% hematocrit) was pipetted into each of the wells, after which the plates were sealed and incubated at 37° C. for 2 hours. […] The absorbance was measured at 595 nm. Percentage haemolysis was calculated by adapting an equation used for dose response assays (Rautenbach, Gerstner, Vlok, Kulenkamff and Westerhoff, 2005, Anal. Biochem. 350:81-90):
A standard curve of tyrocidine doubling dilution (dose response), starting at 20 μg/mL, was used to determine the amount of Tres leading to lysis. Lysis was determined from the linear part of the dose-response curve using the equation: (% haemolysis−2.38)/5.74=[Trc] μg/mL.

[2] = Wettability of treated filters (water drop size and time to absorption); assay type: physicochemical
Procedure: The wettability of untreated and GS- and Trc-treated filters were determined to ascertain the effect the peptides have on the hydrophobicity of the filters. Water containing blue food colouring (50 μL) was pipetted onto untreated and treated filters and the filters were monitored for the drop size and time to complete absorption.
The wettability, an indicator of hydrophilic/hydrophobic character, could possibly be altered by the adsorption of peptide, and this change in character would be an indication of the orientation in which in the peptide adsorbed to the various filters. The wettability of untreated and treated filters was determined (Table 3) and the untreated filters were rated in terms of hydrophobicity based on the time it took for a water droplet to completely absorb into the filter. […] Trc treatment made CA much more hydrophilic, while GS also lead to an increase in hydrophilicity, indicating the exposure of the polar amino acids to the surface. Trc made the HAWP filters more hydrophobic, whereas the gramicidin S made the filter more hydrophilic.

[3] = tested on: Micrococcus luteus NCTC 8340; assay: Antibacterial CFU growth assay, high nutrient environment; assay type: cell-based
Procedure: Micrococcus luteus NCTC 8340 was cultured from a freezer stock on Luria Bertani plates (LB: 1% (w/v) NaCl (Merck), 1% (w/v) tryptone (Merck), 0.5% (w/v) yeast extract (Merck), 1.5% (w/v) agar (BioLab) in analytical grade water) and incubated at 37° C. for a period of 48 hours. A colony inoculate in 20 mL of sterile LB broth was incubated at 37° C. until an A620=0.6 was reached. Peptide-treated matrix and a control untreated matrix were transferred to a LB agar plate (high nutrient environment). The M. luteus culture was diluted to A620 of 0.2, further diluted (2000-10000 fold) and transferred to both treated and untreated filters on the LB plate. Plates were incubated for 48 hours at 37° C., after which the matrixes were inspected for the number of colony forming units (CFU).

[4] = tested on: M. luteus; assay: Cell viability (vitality) assay, low nutrient environment, high cell count; assay type: cell-based, Micrococcus luteus
Procedure: Treated and untreated matrixes (filters, membrane and films) were punched into 5 mm disks and triplicate disks were transferred to black […] microplates. A mid-log phase M. luteus culture was diluted with LB media to A620 of 0.20 (1.3×10^7 CFU/mL). Each well received […] of the diluted culture ([…]) on top of the 5 mm disk. The plate was incubated at 37° C. for one hour after which 90 μL phosphate-buffered saline (PBS) and 10 μL CellTiter-Blue® Reagent was added to each well. The plate was again incubated for 2 hours at 37° C. After the […] incubation in the low nutrient environment, the fluorescence was determined at an excitation wavelength of 530 nm and emission wavelength of 590 nm. The fluorescence reading was taken with a Varioskan™ Multimode reader from Thermo Scientific™ controlled by Skanit Software 2.4.1 from Thermo Electron. Each plate was shaken for 5 seconds before measurements were taken at 25° C.
Cell viability was calculated using the equation: […]
Different filters, surfaces and nanofibers, treated with Trc extract or GS, were assessed for the more direct short-term killing of M. luteus (sterilisation) using a low nutrient environment, high cell count and the Alamar Blue vitality assay to assess bacterial metabolism. […] This could be due to the limited spreading of the 5 μL culture on the filter, limiting the contact of the bacteria with the rest of the Trc-coated filter, and thus this assay could have underestimated the overall filter activity.

[5] = tested on: Gram-negative organisms; assay: Activity of treated CL filters against Gram-negative organisms; assay type: cell-based
[6] = Peptide adsorbed to filters, change in absorbance (A230) of incubation solution
[7] = Polycarbonate (PC, 0.45 μm pores)
[8] = Polyvinylidene difluoride (GVLP, 0.22 μm pores)
[9] = Polyvinylidene difluoride (HVLP, 0.45 μm pores)

CC(C)C[C@@H]1NC(=O)[C@H](CCCN)NC(=O)[C@H](C(C)C)NC(=O)C2CCCN2C(=O)[C@@H](Cc2ccccc2)NC(=O)[C@H](CC(C)C)NC(=O)[C@H](CCCN)NC(=O)[C@H](C(C)C)NC(=O)C2CCCN2C(=O)[C@@H](Cc2ccccc2)NC1=O (some centres unmarked) [GS, Cyclo-(VOLfPVOLfP)] (cyclo(L[dF][ξP]V[Orn]L[dF][ξP]V[Orn]))
concentration at which lysis of red blood cells starts [1]: > 10000 ng/mL | Drop Diameter ([2]; Cellulose (CL, No 1)): >1 cm | Time until absorbed ([2]; Cellulose (CL, No 1)): <0.167 min | induced change in hydrophobicity ([2]; Cellulose (CL, No 1)): no change | Drop Diameter ([2]; Cellulose Acetate (CA)): 0.85 cm | Time until absorbed ([2]; Cellulose Acetate (CA)): 5.01 min | induced change in hydrophobicity ([2]; Cellulose Acetate (CA)): decrease | Drop Diameter ([2]; GSWP, 0.22 μm pores): 0.81 cm | Time until absorbed ([2]; GSWP, 0.22 μm pores): 3.55 min | induced change in hydrophobicity ([2]; GSWP, 0.22 μm pores): increase | Drop Diameter ([2]; HAWP, 0.45 μm pores): 0.96 cm | induced change in hydrophobicity ([2]; HAWP, 0.45 μm pores): slight | Time until absorbed ([2]; HAWP, 0.45 μm pores, 50 μL water drop): 2.20 min | Drop Diameter ([2]; High density cellulose (HDC)): 0.94 cm | Time until absorbed ([2]; High density cellulose (HDC)): >30 min | induced change in hydrophobicity ([2]; High density cellulose (HDC)): slight | Drop Diameter [2, 7]: 0.73 cm | Time until absorbed [2, 7]: >30 min | induced change in hydrophobicity [2, 7]: no change | Drop Diameter [2, 8]: 1.00 cm | Time until absorbed [2, 8]: 17.25 min | induced change in hydrophobicity [2, 8]: increase | Drop Diameter [2, 9]: 0.72 cm | Time until absorbed [2, 9]: 9.20 min | induced change in hydrophobicity [2, 9]: increase | protection of treated filters against overt colonisation by M. luteus ([3]; 48 hour growth assay, low cell count, high nutrient environment, summary of Table 4): only protected CL, HDC and HVLP against overt colonisation | M. luteus, detected CFU/cm^2 after 48 h in nutrient rich environment ([3]; Cellulose (CL)): 0 CFU/cm^2 | M. luteus, detected CFU/cm^2 after 48 h in nutrient rich environment ([3]; Cellulose Acetate (CA)): 3 ± 1 CFU/cm^2 | M. luteus, detected CFU/cm^2 after 48 h in nutrient rich environment ([3]; High density cellulose (HDC)): 0 CFU/cm^2 | M. luteus, detected CFU/cm^2 after 48 h in nutrient rich environment ([3]; Mixed nitrocellulose/cellulose acetate esters (GSWP 0.22 μm)): 3 ± 1 CFU/cm^2 | M. luteus, detected CFU/cm^2 after 48 h in nutrient rich environment ([3]; Mixed nitrocellulose/cellulose acetate esters (HAWP, 0.45 μm)): 4 ± 1 CFU/cm^2 | M. luteus, detected CFU/cm^2 after 48 h in nutrient rich environment ([3]; Polycarbonate (PC, 0.45 um)): 4 ± 1 CFU/cm^2 | M. luteus, detected CFU/cm^2 after 48 h in nutrient rich environment ([3]; Polyvinylidene difluoride (GVHP, 0.22 μm)): 3 ± 1 CFU/cm^2 | M. luteus, detected CFU/cm^2 after 48 h in nutrient rich environment ([3]; Polyvinylidene difluoride (HVLP, 0.45 μm)): 0 CFU/cm^2 | short-term killing of M. luteus (sterilisation) ([4]; HDC and CL filters, FIG. 3A): Good protection | short-term killing of M. luteus (sterilisation) ([4]; HVLP filter, FIG. 3A): good protection | short-term killing of M. luteus (sterilisation) ([4]; all the other filters except PC, compared with growth assay): improved activity | overt activity against Gram-negative organisms [5]: not demonstrated | peptide adsorbed, Absorbance (A230) ([6]; GVHP (0.22 μm) filter): 5.3±1.1 μg/cm^2 | peptide adsorbed, Absorbance (A230) ([6]; HVLP (0.45 μm) filter): 2.8±0.6 μg/cm^2 | peptide adsorbed, Absorbance (A230) ([6]; Polycarbonate filter): 1.2±2.2 μg/cm^2

Reference: patent US10512271B2, “Method for preventing or treating microbial growth on a manufactured product” (Stellenbosch University, priority 2014, dated 2019)
